{
  "source": "ChEMBL document CHEMBL3797044",
  "about": "“Computer-aided design, synthesis, and biological evaluation of new indole-2-carboxamide derivatives as PI3Kα/EGFR inhibitors” (Bioorg Med Chem Lett, 2016)",
  "key": {"K562": {"system": "K562", "assay": "Cytotoxicity against human K562 cells assessed as growth inhibition after 24 hrs by MTT assay", "assay_type": "functional, cell-based", "details": "K562, 24 h"}, "HCT-116": {"system": "HCT-116", "assay": "Induction of apoptosis in human HCT116 assessed as increase in caspase-3 activity at 120 uM incubated for 48 hrs followed by DEVD-pNA substrate addition by caspase-3 colorimetric assay", "assay_type": "functional"}, "MDA-MB-231": {"system": "MDA-MB-231", "assay": "Induction of apoptosis in human MDA231 assessed as increase in caspase-3 activity at 120 uM incubated for 48 hrs followed by DEVD-pNA substrate addition by caspase-3 colorimetric assay", "assay_type": "functional"}},
  "note": "Calls of active or inactive are those of the source. No cut-off for these calls is given here.",
  "data": [
    {"smiles": "CC(O)c1ccc(NC(=O)c2cc3ccccc3[nH]2)cc1", "note": "(stereo not given)", "values": [
      {"measurement": "IC50", "setting": "K562", "result": "> 100", "unit": "µM"}
    ]},
    {"smiles": "O=C(Nc1ccc(C(O)c2ccccc2)cc1)c1cc2ccccc2[nH]1", "note": "(stereo not given)", "values": [
      {"measurement": "IC50", "setting": "K562", "result": "> 100", "unit": "µM"}
    ]},
    {"smiles": "O=C(c1ccccc1)c1ccc(NC(=O)c2cc3ccccc3[nH]2)cc1", "values": [
      {"measurement": "IC50", "setting": "K562", "result": "> 100", "unit": "µM"}
    ]},
    {"smiles": "O=C(Nc1cccc(C(O)c2ccccc2)c1)c1cc2ccccc2[nH]1", "note": "(stereo not given)", "values": [
      {"measurement": "IC50", "setting": "K562", "result": "> 100", "unit": "µM"},
      {"measurement": "Activity", "setting": "HCT-116", "result": "Active"},
      {"measurement": "Activity", "setting": "MDA-MB-231", "result": "Active"}
    ]},
    {"smiles": "CC(=O)c1cccc(NC(=O)c2cc3ccccc3[nH]2)c1", "values": [
      {"measurement": "IC50", "setting": "K562", "result": "> 100", "unit": "µM"}
    ]},
    {"smiles": "CC(=O)c1ccc(NC(=O)c2cc3ccccc3[nH]2)cc1", "values": [
      {"measurement": "IC50", "setting": "K562", "result": "> 100", "unit": "µM"}
    ]},
    {"smiles": "O=C(c1ccccc1)c1cccc(NC(=O)c2cc3ccccc3[nH]2)c1", "values": [
      {"measurement": "IC50", "setting": "K562", "result": "> 100", "unit": "µM"}
    ]},
    {"smiles": "CC(O)c1cccc(NC(=O)c2cc3ccccc3[nH]2)c1", "note": "(stereo not given)", "values": [
      {"measurement": "IC50", "setting": "K562", "result": "> 100", "unit": "µM"}
    ]}
  ]
}
